These results are taken from patent US20080261870A1, “Use of the Pro-Peptide Domain of Lysyl Oxidase as a Therapeutic Agent” (priority 2004, published 2008).

Assay [1] has as its system ras-transformed fibroblasts. Nature of the assay: Growth in soft agar of ras-transformed fibroblasts with ectopic lysyl oxidase expression, with BAPN. The format is cell-based. From the text:
It has now been determined that the ability of lysyl oxidase to revert the phenotype of ras-transformed fibroblasts depends substantially on the pro-peptide domain and not on lysyl oxidase enzyme activity. Since diminished lysyl oxidase expression in some way contributes to the transformed phenotype, it had generally been assumed that lysyl oxidase enzyme activity is related to the tumor suppressor activity of lysyl oxidase, and, therefore, that diminished lysyl oxidase activity promotes the transformed phenotype. […] The lack of effect of BAPN on lysyl oxidase-dependent phenotype control is interesting. […] Given that BAPN is an irreversible inhibitor of lysyl oxidase (Tang et al., 1983), it follows that both extracellular and intracellular lysyl oxidase activity are susceptible to inhibition by BAPN.

In the next assay the test system is PR4 cells. The assay is described as follows: Growth curves and morphology of PR4 cells. The settings on record: 400 μM BAPN. The format is cell-based. The procedure:
(§1) If lysyl oxidase enzyme activity were required for the normal phenotype of PR4 cells, then BAPN would cause re-transformation. Thus, growth curves were generated for PR4 cells in the presence of 0 or 400 μM BAPN.
Growth curves. To study cell growth rates, cells were plated in 6-well plates at a density of 35,000 cells/well and were grown in complete medium containing 10% FBS, as described above. Additions of suramin or β-aminopropionitrile (BAPN), when appropriate, were initiated 24 hours after plating. Media were changed every three days in the continuous presence of suramin or BAPN, as indicated for each experimental design in the Results section. Cell density was determined in triplicate every day by crystal violet staining, as described (Kueng et al., 1989; Gillies et al., 1986). Cells were fixed with 10% formalin in PBS, washed with PBS, and then stained for 30 minutes with 0.1% crystal violet at room temperature with shaking. Unbound dye was then removed by washing with water until washes were colorless. Bound dye was then eluted with 10% acetic acid, and quantitated by measuring the absorbance at 590 nm. For quantitative analyses of growth rates, the logarithmic value of absorbance vs time was plotted±standard deviation and the rates were calculated by linear regression analyses. In addition, data were plotted as total absorbance +/−SE vs time. […]

The target in the next assay is T1, lysyl oxidase (Mus musculus, UniProt P28301).
T1 construct: endogenous in cells; conditioned serum-free medium
T1 sequence (P28301 163-411): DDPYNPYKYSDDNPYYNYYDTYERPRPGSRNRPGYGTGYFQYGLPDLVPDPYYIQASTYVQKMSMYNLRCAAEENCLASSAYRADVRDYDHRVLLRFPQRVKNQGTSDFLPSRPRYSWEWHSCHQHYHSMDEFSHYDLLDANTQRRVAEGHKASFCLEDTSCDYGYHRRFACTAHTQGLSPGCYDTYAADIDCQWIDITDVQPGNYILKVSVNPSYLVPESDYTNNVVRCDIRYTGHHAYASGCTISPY
Nature of the assay: Lysyl oxidase enzyme activity in PR4 cell culture media (tritiated tropoelastin substrate). The assay is classed as biochemical. The procedure:
as §1
Lysyl oxidase enzyme activity. PR4 cells were plated in 100 mm cell culture plates and then grown and re-fed every two days as described above in the constant presence of 0, 200 and 400 μM BAPN for seven days until visually confluent. Cells were then re-fed with serum-free medium supplemented with 0.1% bovine serum albumin still in the constant presence or absence of BAPN. After 24 hours conditioned 0.3 ml aliquots of media samples were assayed in quadruplicate using a tritiated recombinant human tropoelastin as substrate as previously described (Bedell-Hogan et al., 1993). Incubations were performed at […] for 90 minutes (Hong et al., 1999) and data were expressed as total cpm released +/−SE per culture.

In assay [2] the test system is RS485 cells. The assay is described as follows: Growth curves of RS485 cells (crystal violet staining). The settings on record: for decrease of growth rate: linear regression of log of absorbance vs time. The assay is classed as cell-based. From the text: Effect of suramin on RS485 cell phenotype. Suramin is a polysulfonated naphthylurea, initially used in the treatment of trypanosomiasis and onchocerciasis (Sullivan et al., 1997). Its anti-cancer activity was later identified, and suramin has been introduced into clinical trials for various forms of cancer (La Rocca et al., 1990(a); La Rocca et al., 1990(b); Song et al., 2001; Small et al., 2000; Garcia-Schurmann et al., 1999). Suramin interrupts autocrine growth factor pathways by inhibiting the binding of growth factors to their receptors (Sullivan et al., 1997; Zanghi et al., 2000; Fukumoto et al., 2000; Mietz et al., 1998; Coffey et al., 1987). Treatment of c-Ha-ras-transformed NIH 3T3 cells (RS485 cell line) with suramin leads to the induction of lysyl oxidase (Palamakumbura et al., 2003). Here we investigated the effects of suramin on the rate of growth and morphology of RS485 cells, as an initial measure of cell phenotype. Cells were plated in 6-well plates and cultured for 24 hours and then grown in the continuous presence of 0, 100, 125, or 150 μM suramin. As control, the growth of phenotypically normal NIH 3T3 cells in the absence of suramin was analyzed at the same time. Cell growth was determined by daily crystal violet staining of replicate wells. RS485 cells grew more rapidly than NIH 3T3 cells, as expected (Chang et al., 1982). […] The growth rate of RS485 cells treated with 150 μM suramin was similar to that of NIH 3T3 cells.
BAPN-mediated inhibition of lysyl oxidase enzyme activity fails to prevent phenotypic reversion induced by suramin. It has generally been assumed, although never directly tested, that lysyl oxidase dependent phenotypic reversion and tumor suppressor activity depends on its enzyme activity. To directly test the role of lysyl oxidase enzyme activity, we measured the effects of the lysyl oxidase inhibitor, BAPN (Tang et al., 1983), on the phenotypic changes in RS485 cells following treatment with 150 μM suramin. We have previously shown that suramin induces lysyl oxidase activity by about 2.5-fold (Palamakumbura et al., 2003). RS485 cell growth was assessed in the absence or presence of either 150 μM suramin or 400 μM BAPN, or a combination of both 150 μM suramin and 400 μM BAPN.
Growth curves. To study cell growth rates, cells were plated in 6-well plates at a density of 35,000 cells/well and were grown in complete medium containing 10% FBS, as described above. Additions of suramin or β-aminopropionitrile (BAPN), when appropriate, were initiated 24 hours after plating. Media were changed every three days in the continuous presence of suramin or BAPN, as indicated for each experimental design in the Results section. Cell density was determined in triplicate every day by crystal violet staining, as described (Kueng et al., 1989; Gillies et al., 1986). Cells were fixed with 10% formalin in PBS, washed with PBS, and then stained for 30 minutes with 0.1% crystal violet at room temperature with shaking. Unbound dye was then removed by washing with water until washes were colorless. Bound dye was then eluted with 10% acetic acid, and quantitated by measuring the absorbance at 590 nm. For quantitative analyses of growth rates, the logarithmic value of absorbance vs time was plotted±standard deviation and the rates were calculated by linear regression analyses. In addition, data were plotted as total absorbance +/−SE vs time. Experiments were performed three times each with consistent findings.

Assay [3] deals with transfected RS485 cell clones. Nature of the assay: Cell cycle analysis of anti-sense lysyl oxidase and empty vector transfected RS485 cell clones. The assay is classed as cell-based. The settings on record: 150 μM suramin, 24 hours. The method, then: Inhibition of lysyl oxidase expression reduces phenotypic reversion induced by suramin. […] To determine that the suramin-induced phenotypic changes depend upon lysyl oxidase expression, we generated stable anti-sense lysyl oxidase transfected RS485 cell clones. Nine anti-sense lysyl oxidase transfected clones and six empty vector transfected clones were generated and grown in the presence and absence of 150 μM suramin, and after 24 hours, cells were fixed and subjected to cell cycle analysis. Non-transfected RS485 cells were analyzed as an additional control. Differences in the percentage of cells in G1 and S phase occurred as a function of suramin treatment.
(§2) Cell cycle analysis. RS485, NIH 3T3 and PR4 cells were plated on 100 mm plates and were grown until confluent with 0 or 150 μM suramin. Cells (1.5−2×10^6) were then trypsinized, washed with PBS and fixed by washing with ice-cold 70% ethanol. Cells were stained with propidium iodide (50 μg/ml) in PBS containing 2% FBS and was analyzed by flow cytometry using a FACScan flow cytometry with CELLQUEST acquisition and analysis software (Becton Dickinson Co, Bedford, Mass.).
Stable transfection of RS485 cells with an anti-sense lysyl oxidase expression vector. Cells were grown in 100 mm cell culture dishes. At approximately 70% confluence, they were transfected with the anti-sense murine lysyl oxidase expression vector pCLO3 (Giampuzzi et al., 2001) (20 μg DNA/plate) using the calcium phosphate precipitation method (Graham et al., 1973). As a control, RS485 cells were transfected with empty vector (pcDNA3). The transfected cells were selected using G418 (geneticin) at a final concentration of 400 μg/ml in the medium. Colonies were isolated from anti-sense lysyl oxidase and empty vector transfected RS485 cells using cloning cylinders (Southern et al., 1982) and cultured in 400 μg/ml G418. Cells were then plated onto 100 mm plates (250,000 cells/plate) without G418 and treated with 0 or 150 μM suramin. After 24 hours, cells were prepared for cell cycle and Northern analysis as described above.

The subject of assay [4] is RS485 cells. Nature of the assay: Cell cycle analysis (FACS, propidium iodide) of RS485 cells treated with suramin. The assay is classed as cell-based. The settings on record: 2 days. The procedure:
We next determined the effects of suramin on cell cycle progression of RS485 cell cultures. […] The proportions of cells in G1 and S phases in cultures treated with 150 μM suramin are nearly identical to untreated phenotypically normal NIH 3T3 cells (Table I). Thus, treatment with 150 μM suramin changed the morphology, cell cycle, and growth rate of RS485 cells resulting in a more normal phenotype.
as §2
RS485 cells were grown in the presence of 0, 100, or 150 μM suramin for 2 days. Alternatively, NIH 3T3 cells were grown in the absence of suramin, as control. Cells (1.5−2×10^6) were fixed with 70% ethanol and stained with propidium iodide and analyzed by flow cytometry. Data shown are the averages ±SD of experiments performed three times.

For another assay, the system named is lysyl oxidase mRNA. Nature of the assay: Northern blot analysis of lysyl oxidase mRNA in transfected RS485 clones. The assay is classed as cell-based, mouse. The settings on record: 150 μM suramin, 24 hours, normalized to 18S rRNA. The method, then:
To confirm that lysyl oxidase expression is actually diminished by anti-sense lysyl oxidase transfection, the ability of 150 μM suramin to induce low steady state mRNA levels of lysyl oxidase in clones was assessed after 24 hours of treatment by Northern blot analysis with normalization to 18S rRNA signals. Suramin treatment led to an average 8-fold increase in lysyl oxidase mRNA levels in the six empty vector-transfected clones assayed, consistent with previous studies on non-transfected RS485 cells (Palamakumbura et al., 2003). In contrast, an average 1.8-fold increase in lysyl oxidase mRNA levels occurred in the nine anti-sense lysyl oxidase transfected clones, as shown by Northern blot analysis. Thus, the induction of steady state lysyl oxidase mRNA levels by suramin is inhibited by the anti-sense lysyl oxidase transfection, as expected.
RNA isolation and Northern blot analysis. Total RNA was isolated using the RNeasy —RNA isolation kit (Qiagen, Valencia, Calif.). Ten μg samples of denatured RNA were electrophoresed on a 1% agarose gel containing […]. Gels were transferred in 10×SSC by capillary blotting overnight to Gene Screen nylon membranes (Perkin Elmer Life Science, Boston, Mass.). […] Autoradiograms were assessed and normalized by densitometric scanning on a Versa Doc Model 3000 Gel Documentation System and Quantity One Software (BioRad, Hercules, Calif.). […]

In another assay the test system is lysyl oxidase activity. The settings on record: previously shown (Palamakumbura et al., 2003); cited from earlier work.
Setting [5] is: anti-sense lysyl oxidase transfected clones.
[6] abbreviates: empty vector transfected clones.

In the case of `N#CCCN` [BAPN, β-aminopropionitrile], in assay [1], the “effect on ability of ectopic lysyl oxidase expression to prevent growth in soft agar” value is “failed to block”. Also, in the assay on PR4 cells, the “effect on growth rate of PR4 cells” value was “did not affect the growth rate” and the “effect on morphology of PR4 cells” value is reported as “did not change the morphology”. For the same molecule, on lysyl oxidase (PR4 cultures in continuous presence of 200 μM BAPN), the “lysyl oxidase enzyme activity in medium” value is “no lysyl oxidase enzyme activity was detected”. Further, the “lysyl oxidase enzyme activity in medium” value on lysyl oxidase (PR4 cultures in continuous presence of 400 μM BAPN) is given as “no lysyl oxidase enzyme activity was detected”. Also, the “effect on suramin-mediated inhibition of RS485 cell growth” value in the assay on RS485 cells [2] (150 μM suramin and 400 μM BAPN combined) is on record as “did not reverse or affect in any detectable way”. In addition, in the assay on RS485 cells [2] (400 μM BAPN), the “effect on growth rate of RS485 cells” value is “had no effect on the growth rate”.
On to `Cc1ccc(C(=O)Nc2ccc(S(=O)(=O)O)c3cc(S(=O)(=O)O)cc(S(=O)(=O)O)c23)cc1NC(=O)c1cccc(NC(=O)Nc2cccc(C(=O)Nc3cc(C(=O)Nc4ccc(S(=O)(=O)O)c5cc(S(=O)(=O)O)cc(S(=O)(=O)O)c45)ccc3C)c2)c1` [suramin], for which, in assay [3] (setting [5]), the “decrease in S phase” value was 6.9% and the “increase in percentage of cells in G1 phase” value amounted to 10.6%. Besides, in assay [3] (setting [6]), the “decrease of average number of cells in S phase” value is given as 13.5% and the “increase of average number of cells in G1” value stood at 20.8%. Further, in the assay with RS485 cells [4] (100 μM suramin), the G1 % was found to be 59.4 ± 1.3%; the “G2, M %” value is 19.1 ± 7.9%; the S % amounted to 21.5 ± 2.4%. For the same molecule, in the assay with RS485 cells [4] (150 μM suramin), the G1 % worked out at 67.4 ± 0.2%; the “G2, M %” value is reported as 13.6 ± 1.9%; the S % is 19.0 ± 1.7%. The “average increase in lysyl oxidase mRNA levels” value in the assay with lysyl oxidase mRNA (nine anti-sense lysyl oxidase transfected clones) worked out at 1.8 fold. Besides, the “average increase in lysyl oxidase mRNA levels” value in the assay on lysyl oxidase mRNA (six empty vector-transfected clones) is recorded as 8 fold. Moreover, the “induction of lysyl oxidase activity” value in the assay with lysyl oxidase activity is on record as “about 2.5 fold”. The “decrease of growth rate” value with RS485 cells [2] (100 μM suramin) is listed as 38%. Moreover, the “decrease of growth rate” value in the assay with RS485 cells [2] (125 μM suramin) came out at 49%. Also, in the assay with RS485 cells [2] (150 μM suramin), the “morphology of RS485 cells” value is “flatter and contact inhibited”; the “decrease of growth rate” value is given as 56%. The “effect on growth rate of RS485 cells” value in the assay with RS485 cells [2] (150 μM suramin (BAPN experiment)) is on record as “decreased the growth rate”.
